Source: patent US7820722B2, “Permeation enhancers” (Merrion Research III Limited, priority 2001, dated 2010)
Strand notation (5' to 3'): a small letter for the sugar, then the base; units joined by * are phosphorothioate-linked, units joined directly phosphodiester-linked; [ ] holds rarer units or linkages, { } end groups; capitals alone tell only the bases. e = 2'-O-(2-methoxyethyl) (MOE); [5mC] = 5-methylcytosine; d = 2'-deoxy (DNA)

Legend:
[1] = Solubility of the enhancer system in phosphate buffer saline
[2] = Bioavailability of antisense oligonucleotide after intra-jejunal dosing through a catheter, plasma level by anion-exchange chromatography (Example 3); format: in vivo, male rhesus monkeys; details: rhesus monkey, po
Text: The compositions were compared by administering them in solution form through a catheter to test subjects. A jejunal catheter is surgically implanted in six male rhesus monkeys (3-5 years, 3-5 Kg) under anesthesia. The catheters are attached to a subcutaneous access port to allow dosing through the port into the jejunum. The animals are allowed to recover at least 7 days prior to dosing. […] The antisense oligonucleotide is detected by anion-exchange chromatography. The formulations and the measurements of bioavailability, Tmax and plasma peak of antisense oligonucleotide after administration of formulations are described in the chart below.

Row | Molecule | Solubility in phosphate buffer saline [1] | permeability without any permeation enhancer systems [2]
1 | CCCCCCCCCCC(CCCCCCCC)C(=O)[O-].[Na+] (centres unmarked) [sodium 2-n-octyl-dodecanoate] | not fully soluble | 
2 | antisense oligonucleotide: 5-10-5 MOE gapmer phosphorothioate, 5-methylcytosines, targets human TNF-α; GCTGATTAGAGAGAGGTCCC (antisense eG*e[5mC]*eT*eG*eA*dT*dT*dA*dG*dA*dG*dA*dG*dA*dG*eG*eT*e[5mC]*e[5mC]*e[5mC]) |  | poor permeability
